Measurements published in patent US4175133A, “1,2-Diaminocyclohexane platinum (II) complexes having antineoplastic activity against L1210 leukemia” (priority 1977, dated 1979).
Counter-ions that a name gives are not always drawn.

What was measured:
L1210 leukemia [1] = assay: antineoplastic activity against L1210 leukemia in mice, individual treatment (10^5 L1210 cells ip); format: in vivo; settings: for % ILS: 10^5 cells; for Dose/Injection range found safe and effective for providing %ILS of at least 25%, Schedule B: ip injections on days 1, 5 and 9 after implant; for Dose/Injection range found safe and effective for providing %ILS of at least 25%, Schedule C: ip injections on each of days 1-9 after implant; for Dose/Injection range found safe and effective for providing %ILS of at least 25%, Schedule A: single ip injection on day 1 after implant
Experimental: Schedule A consisted of a single injection administered ip on the first day following implant of the L1210 leukemia cells. (i.e., 24 hours after implant). Schedule B consisted of a three-injection regimen, with one injection being administered ip on each of the first, fifth and ninth days following implant. Schedule C consisted of a nine-injection regimen, with one injection being administered ip on each of the first through ninth days following implant.
In this set of tests, the mice received 10^5 L1210 leukemia cells by ip injection, and were divided into groups of 10, including a control group.

L1210 leukemia [2] = assay: combination chemotherapy against L1210 leukemia in mice (10^6 L1210 cells ip, schedule A); format: in vivo; settings: Yoshi-864 and cyclophosphamide 75 mg/kg each; for 60-day Survivors: out of 10, sulfato complex 4 mg/kg
L1210 leukemia [3] = assay: as above; format: in vivo; settings: Yoshi-864 and cyclophosphamide 75 mg/kg each; for 60-Day Survivors: out of 10, dichloro complex 2.5 mg/kg; for % ILS: dichloro complex 2.5 mg/kg
Description: The significance of this test system in evaluating potential antineoplastic agents and the test protocol therefor, are described in detail by Geran et al, "Protocols for Screening Chemical Agents and Natural Products Against Animal Tumors and Other Biological Systems" (Third Edition), Cancer Chemotherapy Reports, Part 3, Volume 3, No. 2, Pages 1-103, September 1972. Briefly, the test procedure involves implanting L1210 leukemia cells into mice by intraperitoneal (i.p.) injection, beginning i.p. treatment with the test drug 24 hours after implant, and determining the antineoplastic activity of the test drug at optimum dose levels and schedules of administration as the percent increase in life span (%ILS) of the treated mice over the untreated control mice.
In this set of tests, the mice received by ip injection 10^6 L1210 leukemia cells, which produces a somewhat more advanced stage of the disease after 24 hours than is obtained upon using 10^5 cells as described in the previous set of tests. The mice were then divided into groups of ten, including a control group, and all mice within the same group were given the same treatment. Treatment was administered ip employing the A schedule of administration. […] The treatments tested were each of the three treating agents by themselves and the dichloro complex in combination with each of the other two treating agents. The resulting %ILS values and the number of mice (out of the group of 10) which survived sixty days following implant, are set forth in Table III.

L1210 leukemia [4] = settings: Gale et al 1974; cited from earlier work
[5] = test system: ADJ/PC6A plasma cell tumor; settings: in comparison with cis-dichlorodiammineplatinum (II); Connors et al 1972; cited from earlier work
Sarcoma 180 = settings: Cleare et al 1973; cited from earlier work
L1210 leukemia [6] = assay: antineoplastic activity of hydroxonitrato complex against L1210 leukemia in mice (10^6 L1210 cells ip); format: in vivo; settings: Schedule A
Experimental: The mice received by ip injection 10^6 L1210 leukemia cells, which produces a somewhat more advance stage of the disease after 24 hours than is obtained upon using 10^5 cells as described previously. The mice were then divided into groups of six, including a control group. […] The highest %ILS value obtained was 144 at a dose level of 10 mg/kg.

cancer = settings: in vivo; cited from earlier work
[7] = highest %ILS regardless of schedule or dose level
[8] = hydroxymalonato complex 30 mg/kg
[9] = out of 10, dinitrato complex 3 mg/kg
[10] = out of 10, hydroxymalonato complex 30 mg/kg
[11] = out of 10, malonato complex 15 mg/kg

Molecule | level of antineoplastic activity greater than that achieved with the dichloro complex (L1210 leukemia [1]; [7]) [%] | Dose/Injection range found safe and effective for providing %ILS of at least 25%, Schedule B (L1210 leukemia [1]) [mg/kg] | Dose/Injection range found safe and effective for providing %ILS of at least 25%, Schedule C (L1210 leukemia [1]) [mg/kg] | Dose/Injection range found safe and effective for providing %ILS of at least 25%, Schedule A (L1210 leukemia [1]) [mg/kg] | 60-day Survivors (L1210 leukemia [2]) [mice] | % ILS (L1210 leukemia [2]; sulfato complex 4 mg/kg) [%] | 60-Day Survivors (L1210 leukemia [3]) [mice] | % ILS (L1210 leukemia [2]; dinitrato complex 3 mg/kg) [%] | % ILS (L1210 leukemia [2]; [8]) [%] | % ILS (L1210 leukemia [2]; malonato complex 15 mg/kg) [%] | 60-Day Survivors (L1210 leukemia [2]; [9]) [mice] | 60-Day Survivors (L1210 leukemia [2]; [10]) [mice] | 60-Day Survivors (L1210 leukemia [2]; [11]) [mice] | also measured
NC1CCCCC1N.O=S(=O)([O-])[O-].[Pt+2] (centres unmarked) [Sulfato complex, sulfato (1,2-diaminocyclohexane) platinum (II)] | 86 | 0.2 to 5 | 0.1 to 1.2 | 0.5 to 10 | 0 | 119 |  |  |  |  |  |  |  | % ILS (L1210 leukemia [1]; Schedule A, 5.0 mg/kg/injection ip): 116%; % ILS (L1210 leukemia [1]; Schedule B, 3.33 mg/kg/injection ip): 285%; % ILS (L1210 leukemia [1]; Schedule C, 0.6 mg/kg/injection ip): 239%
O=P1(N(CCCl)CCCl)NCCCO1 (centres unmarked) [Cyclophosphamide, cyclophosphamide] |  |  |  |  | 0 | 97 | 0 | 105 | 107 | 118 | 0 | 0 | 0 | % ILS (L1210 leukemia [2]; dichloro complex 2.5 mg/kg): 79%
NC1CCCCC1N.[Cl][Pt][Cl] (centres unmarked) [Dichloro complex, dichloro (1,2-diaminocyclohexane) platinum (II)] |  |  |  |  |  |  | 0 |  |  |  |  |  |  | combination with cyclophosphamide (in words) (L1210 leukemia [4]): combined synergistically; effectiveness against L1210 leukemia (in words) (L1210 leukemia [4]): highly effective; increase in mean survival time in comparison with cis-dichlorodiammineplatinum (II) (L1210 leukemia [4]): up to 54%; % ILS (L1210 leukemia [1]; Schedule A, 6.25 mg/kg/injection ip): 114%; % ILS (L1210 leukemia [1]; Schedule B, 8.0 mg/kg/injection ip): 113%; % ILS (L1210 leukemia [1]; Schedule C, 2.0 mg/kg/injection ip): 153%; % ILS (L1210 leukemia [3]): 73%; ID50 (in words) [5]: quite similar to those of cis-dichlorodiammineplatinum (II); LD50 (in words) [5]: quite similar to those of cis-dichlorodiammineplatinum (II); antitumor activity against Sarcoma 180 (in words) (Sarcoma 180): only marginal antitumor activity
NC1CCCCC1N.O=C([O-])CC(=O)[O-].[Pt+2] (centres unmarked) [Malonato complex, malonato (1,2-diaminocyclohexane) platinum (II)] | 77 | 10 to 40 | 5 to 20 | 2.5 to 160 |  |  |  |  |  | 80 |  |  | 0 | % ILS (L1210 leukemia [1]; Schedule A, 2.5 mg/kg/injection ip): 258%; % ILS (L1210 leukemia [1]; Schedule A, 40.0 mg/kg/injection ip): 271%; % ILS (L1210 leukemia [1]; Schedule B, 40.0 mg/kg/injection ip): 157%; % ILS (L1210 leukemia [1]; Schedule C, 10.0 mg/kg/injection ip): 219%; antitumor activity against Sarcoma 180 (in words) (Sarcoma 180): only marginal antitumor activity
NC1CCCCC1N.O=[N+]([O-])[O-].[OH-].[Pt+2] (centres unmarked) [Hydroxonitrato complex, hydroxonitrato (1,2-diaminocyclohexane) platinum (II)] |  | 1 to 5 | 0.3 to 1.25 | 2.5 to 15 |  |  |  |  |  |  |  |  |  | % ILS (L1210 leukemia [6]; 10 mg/kg ip, 10^6 cells): 144%; greater %ILS value than dichloro complex (L1210 leukemia [6]; 10^6 cells vs dichloro complex at 10^5 cells): 26%
N.N.[Cl][Pt][Cl] [cis-dichlorodiammineplatinum (II)] |  |  |  |  |  |  |  |  |  |  |  |  |  | therapeutic index (in words) (cancer): rather low therapeutic index
CS(=O)(=O)OCCCNCCCOS(C)(=O)=O [Yoshi-864, 1-propanol, 3,3'-iminodi-,dimethanesulfonate (ester) hydrochloride] |  |  |  |  | 0 | 95 | 0 | 116 | 117 | 112 | 0 | 0 | 0 | % ILS (L1210 leukemia [3]): 81%
NC1CCCCC1N.O=[N+]([O-])[O-].O=[N+]([O-])[O-].[Pt+2] (centres unmarked) [Dinitrato complex, dinitrato (1,2-diaminocyclohexane) platinum (II)] | 83 | 0.25 to 4 | 0.05 to 2 | 0.5 to 8 |  |  |  | 110 |  |  | 0 |  |  | % ILS (L1210 leukemia [1]; Schedule A, 4.0 mg/kg/injection ip): 113%; % ILS (L1210 leukemia [1]; Schedule B, 4.0 mg/kg/injection ip): 247%; % ILS (L1210 leukemia [1]; Schedule C, 0.5 mg/kg/injection ip): 281%
hydroxymalonato (1,2-diaminocyclohexane) platinum (II) [Hydroxymalonato complex] | 111 | 5 to 37.5 | 1 to 15 | 2 to 150 |  |  |  |  | 118 |  |  | 0 |  | % ILS (L1210 leukemia [1]; Schedule A, 75.0 mg/kg/injection ip): 97%; % ILS (L1210 leukemia [1]; Schedule B, 37.5 mg/kg/injection ip): 162%; level of antineoplastic activity greater than that achieved with the malonato complex (L1210 leukemia [1]; [7]): 19%; potency against L1210 leukemia relative to malonato complex (in words) (L1210 leukemia [1]; in comparison with malonato complex): even greater potency; water solubility: 1500 µg/mL
